Assay results published in patent US20250144227A1, “C-16 MODIFIED TRIOXACARCINS, ANTIBODY DRUG CONJUGATES, AND USES THEREOF” (President and Fellows of Harvard College, priority 2021, published 2025).
Like-named read-outs stand apart in the source and are kept apart here.

Test system: H460 cells
Assay: Cell proliferation assay (resazurin, CellTiter-Blue), H460 cells
Type: cell-based
Settings: for GI50: Homo sapiens; for Effect of the C16 modification on potency (in words): comment on the data of Table 2 (H460 cells)
Procedure: Cell Culture: All cell-culture work was conducted in a class II biological safety cabinet. H460 cells (P2-P4, American Type Culture Collection) were maintained in RPMI-1640 medium supplemented with 10% fetal bovine serum (FBS). HL-60 cells (P2-P4, American Type Cuture Collection) were maintained in RPMI-1640 medium supplemented with 10% FBS. MES-SA/Dx-5 cells (P2-P4, European Collection of Authenticated Cell Cultures) were maintained in McCoy's 5A medium supplemented with 10% FBS.
Cell Proliferation Assay: H460 and MES-SA/Dx-5 cells were grown to approximately 80% confluence, and then were trpysinized, collected, and pelleted by centrifugation (10 min at 183 x g, 24° C.), and HL-60 cells were grown to confluence and directly pelleted by centrifugation (10 min at 183 × g, 24° C.). The supernatant was discarded and the cell pellet was resuspended in 10 mL of fresh medium. A sample was diluted 10-fold in fresh medium, and the concentration of cells was determined using a hemacytometer. The cell suspension was diluted to a concentration of 3000 cells/100 μL. The wells of a pre-sterilized 96-well plate were charged with 100 μL per well of the diluted cellular suspension. The plate was incubated for 24 h at 37° C. (5% CO2).
Stock solutions of each compound in DMSO were diluted with the appropriate media to 100 nM solutions (1% DMSO), which were then serially diluted with the appropriate media, and 100-uL aliquots of the resulting solutions were added to the wells containing adhered cells to achieve final concentrations of 0.39 nM to 50 nM. After incubating at 37° C. for 72 h (5% CO2), 20 μL of resazurin solution (Promega CellTiter-Blue® Cell Viability Assay) was added to each well. After incubating at 37° C. for 2.0 h (5% CO2), the fluorescence (544 nm excitation/590 nm emission) was recorded using a microplate reader (SpectraMax PLUS384) as a measure of viable cells.
Percent growth inhibition was calculated for each well, based upon the following formula: Percent growth inhibition=100×(S−B0)/(Bt−B0) where S is the sample fluorescence, Bt is the average fluorescence of an untreated population of cells at the completion of the assay, and B0 is the average fluorescence of an untreated population of cells at the beginning of the assay.
Each compound was assayed at eight separate concentrations per experiment. The percent inhibition at each concentration was plotted against log (concentration), and a curve fit was generated using the XLfit4 plugin (IDBS Software) running in Excel (Microsoft). GI50 values were computed to reflect the concentrations at which the resulting curves pass through 50% inhibition.

[1] = NCI-H460, H460 cells, 72 h incubation, read-out: GI50

Row | GI50 [1] | SMILES | GI50 (NCI-H460, 72 h) | Effect of the C16 modification on potency (in words)
1 | 15 nM | COc1c2c(c(O)c3c4c(c(C)cc13)C1OC3(CO)OC1[C@@](O)(O4)[C@@]31CO1)C(=O)CCC2 (stereo partly drawn) [compound 20, (25,2′R,3a′R, 13a′R)-12′, 13a′-dihydroxy-2′-(hydroxymethyl)-7′-methoxy-5′-methyl-3a′, 4′,8′,9′,10′,13a′-hexahydro-2′H,11′H-spiro[oxirane-2,1′-[2.4]epoxyfuro[3,2-b]naphtho[2,3-h]chromen]-11′-one] |  | 
2 | 8 nM | COc1c2c(c(O)c3c4c(c(C)cc13)C1O[C@]3(CO)O[C@H]1[C@@](OC)(O4)[C@@]3(O)CBr)C(=O)CCC2 (stereo partly drawn) [compound 21, (1R,2R,3aR,13aR)-1-(bromomethyl)-1,12-dihydroxy-2-(hydroxymethyl)-7,13a-dimethoxy-5-methyl-1,2,3a,4,8,9,10,13a-octahydro-11H-2,4-epoxyfuro[3,2-b]naphtho[2,3-h]chromen-11-one] |  | 
3 | 22 nM | CCCOCC12OC3c4c(C)cc5c(OC)c6c(c(O)c5c4O[C@](OC)(C3O1)[C@@]21CO1)C(=O)CCC6 (stereo partly drawn) [compound 22, (2R,2′R,3a′R,13a′R)-12′-Hydroxy-7′,13a′-dimethoxy-5′-methyl-2′-(propoxymethyl)-3a′, 4′,8′,9′,10′,13a′-hexahydro-2′H,11′H-spiro[oxirane-2,1′-[2.4]epoxyfuro[3,2-b]naphtho[2,3-h]chromen]-11′-one] |  | 
4 | 14 nM | C=CCOCC12OC3c4c(C)cc5c(OC)c6c(c(O)c5c4O[C@](OC)(C3O1)[C@@]21CO1)C(=O)CCC6 (stereo partly drawn) [compound 23, (2R,2′R,3a′R,13a′R)-2′-((Allyloxy)methyl)-12′-hydroxy-7′,13a′-dimethoxy-5′-methyl-3a′,4′,8′,9′,10′,13a′-hexahydro-2′H, 11′H-spiro[oxirane-2,1′-[2,4]epoxyfuro[3,2-b]naphtho[2.3-h]chromen]-11′-one] |  | 
5 | 10 nM | COc1c2c(c(O)c3c4c(c(C)cc13)C1O[C@]3(CN)O[C@H]1[C@@](OC)(O4)[C@@]31CO1)C(=O)CCC2 (stereo partly drawn) [compound 26, (2R,2′R,3a′R,13a′R)-2′-(Aminomethyl)-12′-hydroxy-7′,13a′-dimethoxy-5′-methyl-3a′, 4′,8′,9′,10′, 13a′-hexahydro-2′H, 11′H-spiro[oxirane-2,1′-[2,4]epoxyfuro[3,2-b]naphtho[2,3-h]chromen]-11′-one] |  | good tolerance
6 | 20 nM | COc1c2c(c(O)c3c4c(c(C)cc13)C1OC3(CBr)OC1[C@@](OC)(O4)[C@@]31CO1)C(=O)CCC2 (stereo partly drawn) [compound 32, (2S,2′S,3a′R,13a′R)-2′-(Bromomethyl)-12′-hydroxy-7′,13a′-dimethoxy-5′-methyl-3a′,4′,8′9′,10′,13a′-hexahydro-2′H,11′H-spiro [oxirane-2,1′-[2,4]epoxyfuro[3,2-b]naphtho[2,3-h]chromen]-11′-one] |  | good tolerance

Second part, the compound before the results:

Row | SMILES | GI50 [1] | GI50 (NCI-H460, 72 h) | Effect of the C16 modification on potency (in words)
7 | COc1c2c(c(O)c3c4c(c(C)cc13)C1OC3(COCc5ccccc5)OC1[C@@](O)(O4)[C@@]31CO1)C(=O)CCC2 (stereo partly drawn) [compound 17, (2S,2′R,3a′R, 13a′R)-2′-((Benzyloxy)methyl)-12′, 13a′-dihydroxy-7′-methoxy-5′-methyl-3a′ 4′,8′,9′,10′,13a′-hexahydro-2′H,11′H-spiro [oxirane-2,1′-[2,4]epoxyfuro[3,2-b]naphtho[2,3-h]chromen]-11′-one] | > 100 nM |  | 
8 | COc1c2c(c(O)c3c4c(c(C)cc13)C1O[C@]3(COCc5ccccc5)O[C@H]1[C@@](OC)(O4)[C@@]31CO1)C(=O)CCC2 (stereo partly drawn) [compound 18, (2R,2′R,3a′R, 13a′R)-2′-((Benzyloxy)methyl)-12′-hydroxy-7′,13a′-dimethoxy-5′-methyl-3a′,4′,8′,9′,10′,13a′-hexahydro-2′H, 11′H-spiro [oxirane-2,1′-[2,4]epoxyfuro[3,2-b]naphtho[2,3-h]chromen]-11′-one] | > 100 nM |  | 
9 | COc1c2c(c(O)c3c4c(c(C)cc13)C1OC3(CO)OC1[C@@](OC)(O4)[C@@]31CO1)C(=O)CCC2 (some centres unmarked) [compound 19, (2R.2′R,3a′R, 13a′R)-12′-Hydroxy-2′-(hydroxymethyl)-7′,13a′-dimethoxy-5′-methyl-3a′, 4′,8′,9′,10′,13a′-hexahydro-2′H, 11′H-spiro [oxirane-2,1′-[2,4]epoxyfuro[3,2-b]naphtho[2,3-h]chromen]-11′-one] |  | 5.5 nM | 
10 | C#CCOCC12OC3c4c(C)cc5c(OC)c6c(c(O)c5c4O[C@](OC)(C3O1)[C@@]21CO1)C(=O)CCC6 (stereo partly drawn) [compound 24, (2R,2′R,3a′R,13a′R)-12′-Hydroxy-7′,13a′-dimethoxy-5′-methyl-2′-((prop-2-yn-1-yloxy)methyl)-3a′,4′,8′,9′,10′,13a′-hexahydro-2′H,11′H-spiro[oxirane-2,1′-[2,4]epoxyfuro[3,2-b]naphtho[2.3-h]chromen]-11′-one] |  | 14 nM | 
11 | COc1c2c(c(O)c3c4c(c(C)cc13)C1O[C@]3(CN=[N+]=[N-])O[C@H]1[C@@](OC)(O4)[C@@]31CO1)C(=O)CCC2 (stereo partly drawn) [compound 25, (2R,2′R,3a′R,13a′R)-2′-(Azidomethyl)-12′-hydroxy-7′,13a′-dimethoxy-5′-methyl-3a′, 4′,8′,9′,10′,13a′-hexahydro-2′H,11′H-spiro[oxirane-2,1′-[2,4]epoxyfuro[3,2-b]naphtho[2,3-h]chromen]-11′-one] |  | 33 nM | good tolerance
12 | COc1c2c(c(O)c3c4c(c(C)cc13)C1OC3(COCc5cn(Cc6ccccc6)nn5)OC1[C@@](OC)(O4)[C@@]31CO1)C(=O)CCC2 (stereo partly drawn) [compound 27, (2R,2′R,3a′R,13a′R)-2′-(((1-Benzyl-1H-1,2,3-triazol-4-yl)methoxy)methyl)-12′-hydroxy-7′,13a′-dimethoxy-5′-methyl-3a′,4′,8′,9′, 10′, 13a′-hexahydro-2′H,11′H-spiro [oxirane-2, 1′-[2,4]epoxyfuro[3,2-b]naphtho[2.3-h]chromen]-11′-one] |  | > 100 nM | ablates potency
13 | COc1c2c(c(O)c3c4c(c(C)cc13)C1OC3(CO[C@@H]5O[C@H](COC(C)=O)[C@@H](OC(C)=O)[C@H](OC(C)=O)[C@H]5OC(C)=O)OC1[C@@](OC)(O4)[C@@]31CO1)C(=O)CCC2 (stereo partly drawn) [compound 28, (2R,3R,4S,5R,6R)-2-(Acetoxymethyl)-6-(((2R,13a′R)-12′-hydroxy-7′,13a′-dimethoxy-5′-methyl-11′-oxo-3a′,8′,9′,10′,11′,13a′-hexahydro-2′H,4′H-spiro [oxirane-2,1′-[2,4]epoxyfuro[3,2-b]naphtho[2,3-h]chromen]-2′-yl)methoxy) tetrahydro-2H-pyran-3,4,5-triyl triacetate] |  | > 100 nM | poorly tolerated
14 | COc1c2c(c(O)c3c4c(c(C)cc13)C1OC3(COCC5OC(CO)C(O)C(O)C5O)OC1[C@@](OC)(O4)[C@@]31CO1)C(=O)CCC2 (stereo partly drawn) [compound 29, (2R,13a′R)-12′-Hydroxy-7′,13a′-dimethoxy-5′-methyl-2′-((((2R,3R,4S,5S,6R)-3,4,5-trihydroxy-6-(hydroxymethyl)tetrahydro-2H-pyran-2-yl)oxy)methyl)-3a′ 4′,8′,9′, 10′,13a′-hexahydro-2′H. 11′H-spiro [oxirane-2,1′-[2,4]epoxyfuro[3,2-b]naphtho[2,3-h]chromen]-11′-one] |  |  | poorly tolerated
15 | COc1c2c(c(O)c3c4c(c(C)cc13)C1OC3(COC5CC(C)(O)C(OC(C)=O)C(C)O5)OC1[C@@](OC)(O4)[C@@]31CO1)C(=O)CCC2 (stereo partly drawn) [compound 30, (25,3S,4R,6S)-4-Hydroxy-6-(((2R,13a′R)-12′-hydroxy-7′,13a′-dimethoxy-5′-methyl-11′-oxo-3a′,8′,9′,10′,11′,13a′-hexahydro-2′H,4′H-spiro [oxirane-2,1′-[2,4]epoxyfuro[3,2-b]naphtho[2,3-h]chromen]-2′-yl)methoxy)-2,4-dimethyltetrahydro-2H-pyran-3-yl acetate] |  | 20 nM | well tolerated
16 | COc1c2c(c(O)c3c4c(c(C)cc13)C1OC3(CSC(C)=O)OC1[C@@](OC)(O4)[C@@]31CO1)C(=O)CCC2 (stereo partly drawn) [compound 33, S-(((25,2'S,3a′R,13a′R)-12′-hydroxy-7′,13a′-dimethoxy-5′-methyl-11′-oxo-3a′,8′,9′,10′,11′,13a′-hexahydro-2′H,4′H-spiro [oxirane-2,1′-[2,4]epoxyfuro[3,2-b]naphtho[2,3-h]chromen]-2′-yl)methyl)ethanethioate] |  | 100 nM | lack of activity
